Data published in patent US12065427B2, “Heterocyclic compounds capable of activating STING” (BOEHRINGER INGELHEIM INTERNATIONAL GMBH, priority 2021, dated 2024).

Key:
STING HAQ-variant = target: T1, STING HAQ-variant (Homo sapiens, UniProt Q86WV6, G230A/H232R/R293Q/R71H); assay: IRF-inducible SEAP reporter assay in THP1-Blue ISG cells, STING HAQ-variant; assay type: cell-based; settings: STING HAQ-variant (parental or re-introduced), 24 hours incubation
T1 construct: parental THP1-Blue™ ISG cell lines (which express endogenously HAQ); host or cells: THP1-Blue ISG (parental, endogenous HAQ) or STING-KO clone re-transduced with HAQ (MSCV-ires-GFP-Blasti)
Text: (§1) In Vitro Cytokine Induction Measured Via Activation of an Interferon Regulatory Factor Inducible Reporter Gene
(§2) Activation of the STING protein expressed in cell lines results in an increase of interferon production. By the stable integration of an interferon regulatory factor (IRF)-inducible SEAP gene (secreted embryonic alkaline phosphatase) reporter construct the functional interferon signaling pathway can be monitored. Using Invivogen's THP1-Blue™ ISG colorimetric enzyme assay and a suitable optical density (OD) reader the activity of SEAP can be detected and quantified. This technique could be used to characterize pharmacological modification of the STING pathway.
(§3) Several single nucleotide polymorphisms have been identified in the human STING gene. To determine the activity of the above described compounds, THP1-Blue™ ISG reporter cell lines expressing the different human STING variants have been generated. To do so, the endogenous human STING was first deleted using the CRISPR/CAS9 system: THP1-Blue ISG cells were electroporated with ALL-IN-ONE CRISPR plasmids targeting the STING gene (purchased from Sigma encoding the gRNA and GFP as a reporter gene for successful transduction). GFP positive cells then were sorted 24 h post transfection and expanded. Cells were then dispersed in semisolid methocel medium to allow single cell clone isolations. Clones were then screened for cGAMP responsiveness using the Quanti-Blue™ reporter assay. Non-responsive clones were subsequently analysed for STING loss by western blotting and sequencing of the STING locus.
(§4) For the overexpression of the human STING variants, a confirmed THP1-Blue™ ISG hSTING KO clone was transduced with individual retroviral plasmids (MSCV-ires-GFP-Blasti) encoding the allelic variants of hSTING (WT (H232R), HAQ, R232H, AQ and R293Q). Transduced cells were sorted for different levels of GFP fluorescence and STING allele expression was analysed by western blot.
(§5) Measurements of SEAP activity were performed in THP1-Blue™ ISG cells stably expressing the different human STING isoforms and the IRF-inducible SEAP reporter construct. Cells were cultivated in RPMI1640 medium with 10% fetal calf serum, 50 μg/ml Penicillin-Streptomycin, 100 μg/ml Zeocin, and 100 μg/ml Normocin in a 37°, 95% humidity and 5% CO2 incubator.
(§6) In preparation for the assay, the cells were distributed into the assay plates with a density of 10000 cells/15 μL per well. Compounds were prepared by an 8 point serial dilution in 50% aqueous DMSO and a final dilution step into medium to ensure a final DMSO concentration of 0.5% in the assay. 5 μL of diluted compounds were added to the plates, followed by a 24 hours incubation at 37° C.
(§7) At the day of the assay, 75 μl per well of Quanti-Blue™ reagent was added to all wells of the plate and the plate was incubated another 30 minutes at 37° C. The OD at 620 nm was measured on the EnVision reader (PerkinElmer).
(§8) EC50 values and Hill slopes were derived from 8-point four parametric non-linear curve fittings with the Megalab software (Boehringer Ingelheim) using the OD at 620 nm.
(§9) Data of EC50 values can be found in tables 2a-2e.
Data of EC50 values on STING HAQ-variant can be found in table 2a. Shown data below were either derived from the parental THP1-Blue™ ISG cell lines (which express endogenously HAQ) or from genetically engineered THP1-Blue™ ISG cell lines in which first STING has been knocked-out and the HAQ specific STING isoform has been re-introduced as described above.

STING AQ-variant = target: T2, STING AQ-variant (Homo sapiens, UniProt Q86WV6, G230A/H232R/R293Q); assay: IRF-inducible SEAP reporter assay in THP1-Blue ISG cells, STING AQ-variant; assay type: cell-based; settings: 24 hours incubation
T2 construct: expressed in transfected cells; host or cells: THP1-Blue ISG hSTING KO clone, retroviral MSCV-ires-GFP-Blasti
Text: as §1, §2, §3, §4, §5, §6, §7, §8, §9
Data of EC50 values on STING AQ-variant can be found in table 2e: […]

[1] = system: Human STING (hSTING, residues 155-341); assay: Interaction with hSTING as determined by Differential Scanning Fluorimetry (DSF); assay type: binding; settings: 100 μM test compounds, 5 μM target protein
Experimental: Interaction with hSTING as Determined by Differential Scanning Fluorimetry (DSF)
In DSF, the temperature at which a protein unfolds, also called the melting temperature Tm, is measured by changes in fluorescence of a dye that binds to the hydrophobic parts of the protein. Tm shifts upon binding of a small molecule are correlated with the binding affinity of this small molecule. As target protein, Human STING (hSTING, residues 155-341, MW: 21578.4 Da; protein stock solution: c=1302 μM stock solution in 20 mM Tris, 100 mM NaCl, 2 mM TCEP pH 8.8) was used, as assay buffer 20 mM Tris, 150 mM NaCI pH7.5 was added where and as necessary.
Final concentrations of components in assay: 100 μM test compounds, 5 μM target protein, “5×” SYPR Orange (from stock solution SYPRO orange solution in DMSO (invitrogen cat.-no. S6650-500 ul), concentration “5000×”)
1) Dilutions of compound stock solutions (10 mM in DMSO) were prepared in assay buffer (20 mM Tris, 150 mM NaCl; pH7.5)
2) 5 μl fluorescent dye stock solution (5000×SYPRO Orange in DMSO) was mixed with 19 μl target protein (1302 μM) and 976 μl assay buffer.
3) 2 μl of this protein-dye-mixture (25×SYPRO Orange and 25 μM Protein) was added to 8 μl diluted compound solution as prepared in step 1. Final volume was 10 μl.
4) With every 20 compounds, two negative controls were measured.
5) The plates were prepared for duplicate measurement and centrifuged for 2 min at 1000 g.
6) For the measurement, a CFX384 Real-Time System (Bio-Rad) was used. The run consisted of 140 cycles with 0.5° C./cycle (temperature ramp 15 s/cycle, 25° C. to 95° C.).
Data analysis: The melting curves were processed in Bio-Rad CFX Manager. Peak type was set to “negative”. Two replicates of TM (melting temperature) measurements were averaged and the standard deviation was calculated.

STING H232R-variant = target: T3, STING H232R-variant (Homo sapiens, UniProt Q86WV6, H232R); assay: IRF-inducible SEAP reporter assay in THP1-Blue ISG cells, STING H232R-variant; assay type: cell-based; settings: STING H232R-variant (WT), 24 hours incubation
T3 construct: expressed in transfected cells; host or cells: THP1-Blue ISG hSTING KO clone, retroviral MSCV-ires-GFP-Blasti
Text: as §1, §2, §3, §4, §5, §6, §7, §8, §9
Data of EC50 values on STING H232R-variant can be found in table 2b: […]

STING R293Q-variant = target: T4, STING R293Q-variant (Homo sapiens, UniProt Q86WV6, H232R/R293Q); assay: IRF-inducible SEAP reporter assay in THP1-Blue ISG cells, STING R293Q-variant; assay type: cell-based; settings: 24 hours incubation
T4 construct: expressed in transfected cells; host or cells: THP1-Blue ISG hSTING KO clone, retroviral MSCV-ires-GFP-Blasti
Text: as §1, §2, §3, §4, §5, §6, §7, §8, §9
Data of EC50 values on STING R293Q-variant can be found in table 2d: […]

STING R232H-variant = target: T5, STING R232H-variant (Homo sapiens, UniProt Q86WV6); assay: IRF-inducible SEAP reporter assay in THP1-Blue ISG cells, STING R232H-variant; assay type: cell-based; settings: 24 hours incubation
T5 construct: expressed in transfected cells; host or cells: THP1-Blue ISG hSTING KO clone, retroviral MSCV-ires-GFP-Blasti
Text: as §1, §2, §3, §4, §5, §6, §7, §8, §9
Data of EC50 values on STING R232H-variant can be found in table 2c: […]

in vitro = settings: human, Caco-2, pH 7.4
Experimental: Cellular Permeability Measurements
Caco-2 cells were obtained from Leibniz Institute DSMZ-German Collection of Microorganisms and Cell Cultures (Braunschweig, Germany) and cultured in DMEM (Dulbecco's modified Eagle medium) containing (in final concentrations) 10% FCS (fetal calf serum), 1% NEAA (non-essential amino acids), 2 mM Glutamin, 100 U/mL Penicillin and 100 μg/mL Streptomycin. Caco-2 cells were seeded either onto 24-well Transwell inserts (Corning, #3379) for bidirectional permeability assays at a density of 160,000 cells/cm^2 and cultured for 3 weeks, with media change on every second day.
For bidirectional permeability assays 10 mM DMSO stock solutions were diluted in transport buffer (final concentrations: 128.13 mM NaCl, 5.36 mM KCl, 1 mM MgSO4, 1.8 mM CaCl2, 4.17 mM NaHCO3, 1.19 mM Na2HPO4, 0.41 mM NaH2PO4, 15 mM 2-[4-(2-hydroxyethyl)piperazin-1-yl]ethanesulfonic acid (HEPES), 20 mM glucose, pH 7.4) containing 0.25% bovine serum albumin to a final concentration of 10 μM of the test compounds and added to the apical or basal compartment. Cells were incubated with the compounds for up to 2 h. Samples from the opposite compartment were taken at different timepoints.
Compound concentrations in the compartments were quantified using a RapidFire-based high-throughput HPLC/MS/MS system (high performance liquid chromatography/mass spectrometry; Bio-Cius) that was customized to a fully automated and flexible platform, termed RIAS. In this modified setup, the sample was aspirated by a vacuum pump into a 10 μL sample loop for 250 ms and flushed onto a C4 cartridge (3.8 μL bed volume; Bio-Cius) with the aqueous mobile phase (99.9% water, 0.09% formic acid, and 0.01% TFA; flow rate 1.5 mL/min). Prior to bioanalysis samples were spiked with internal standard solution and diluted with acetonitrile (ACN) for protein precipitation. Measurement was operated in multiplereaction monitoring (MRM) mode. Quantification was performed using external calibration. A solid-phase extraction step retained the analyte for 3000 ms while interfering matrix (e.g., buffer components) was removed. With a simple step gradient, the analyte was back-eluted from the cartridge for 3,000 ms with the organic mobile phase (99.9% acetonitrile/methanol [1:1, v:v], 0.09% formic acid, and 0.01% TFA) and flushed into the mass spectrometer at a flow rate of 1.25 mL/min. Afterwards, the cartridge was re-equilibrated with the aqueous mobile phase for 500 ms (flow rate 1.5 mL/min).
Apparent permeability coefficients in the apical to basal direction (Papp,AB) and in the basal to apical direction (Papp,BA) and efflux ratios were calculated as follows: Papp,AB=QAB/(C0·s·t) Papp,BA=QBA/(C0·s·t) Efflux ratio=Papp,BA/Papp,AB
where Q is the amount of compound recovered in the receiver compartment after the incubation time t, C0 the initial compound concentration given to the donor compartment, and s the surface area of the Transwell inserts. […] In addition, transepithelial electrical resistance (TEER) values are measured for each plate before the permeability assay, and total recovery in donor and receiver compartments was determined for each compound.

T5 sequence (Q86WV6 whole entry, stated change not applied): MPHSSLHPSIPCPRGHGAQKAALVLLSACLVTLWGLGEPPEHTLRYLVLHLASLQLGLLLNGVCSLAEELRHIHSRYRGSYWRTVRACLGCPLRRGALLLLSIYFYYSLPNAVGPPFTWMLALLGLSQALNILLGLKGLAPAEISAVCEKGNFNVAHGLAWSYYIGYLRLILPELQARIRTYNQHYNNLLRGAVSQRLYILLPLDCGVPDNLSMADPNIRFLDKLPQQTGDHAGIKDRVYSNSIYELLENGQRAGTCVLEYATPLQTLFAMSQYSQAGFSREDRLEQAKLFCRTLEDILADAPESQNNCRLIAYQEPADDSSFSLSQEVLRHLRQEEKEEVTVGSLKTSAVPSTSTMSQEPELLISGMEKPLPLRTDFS
T4 sequence (Q86WV6 whole entry H232R/R293Q): as the sequence (Q86WV6 whole entry, stated change not applied) above, with H232R, R293Q counted along it
T1 sequence (Q86WV6 whole entry R71H/G230A/H232R/R293Q): as the sequence (Q86WV6 whole entry, stated change not applied) above, with R71H, G230A, H232R, R293Q counted along it
T2 sequence (Q86WV6 whole entry G230A/H232R/R293Q): as the sequence (Q86WV6 whole entry, stated change not applied) above, with G230A, H232R, R293Q counted along it
T3 sequence (Q86WV6 whole entry H232R): as the sequence (Q86WV6 whole entry, stated change not applied) above, with H232R counted along it

| Structure (SMILES) | EC50 (STING HAQ-variant) | EC50 (STING AQ-variant) | EC50 (STING H232R-variant) | EC50 (STING R293Q-variant) | EC50 (STING R232H-variant) | Papp A→B at 10 μM (in vitro) | efflux ratio at 10 μM (in vitro) | thermal shift (ΔTm) [1] |
| --- | --- | --- | --- | --- | --- | --- | --- | --- |
| Cc1cccc2c(-c3cccc4nn(C)cc34)nn(-c3ccc(N4CCOCC4)nc3)c12 [compound 17, 2′,7-dimethyl-1-[6-(mor-pholin-4-yl)pyridin-3-yl]-1H,2′H-3,4′-biindazole] | 6800 nM | 5700 nM | 2100 nM | 6100 nM | 2000 nM | 26 ×10⁻⁶ cm/s | 0.3 | 16 K |
| Cc1cc2c(-c3nn(-c4ccc(N5CCC(C(=O)O)CC5)nc4)c4c(C)cccc34)cccc2cn1 [Example #61, 1-{5-[7-methyl-3-(3-methylisoquinolin-5-yl)-1H-indazol-1-yl]pyridin-2-yl}piperidine-4-carboxylic acid] | 3000 nM | 3000 nM | 2900 nM | 2200 nM | 2900 nM | 10 ×10⁻⁶ cm/s | 1.1 | 16 K |
| Cc1cccc2c(-c3cccc4nn(C)cc34)nn(-c3ccc(N4CCC5(CC4)CNC5=O)nc3)c12 [compound 10, 7-(5-{2′,7-dimethyl-1H,2′H-[3,4′-biindazol]-1-yl}pyri-din-2-yl)-2,7-dia-zaspiro[3.5]nonan-1-one] | 2100 nM | 2200 nM | 400 nM | 2100 nM | 500 nM | 26 ×10⁻⁶ cm/s |  | 20 K |

Stronger by EC50 (STING HAQ-variant), values ahead:

| EC50 (STING HAQ-variant) | EC50 (STING AQ-variant) | EC50 (STING H232R-variant) | EC50 (STING R293Q-variant) | EC50 (STING R232H-variant) | Papp A→B at 10 μM (in vitro) | efflux ratio at 10 μM (in vitro) | Structure (SMILES) | thermal shift (ΔTm) [1] |
| --- | --- | --- | --- | --- | --- | --- | --- | --- |
| 1700 nM | 1900 nM | 700 nM | 1600 nM | 700 nM | 50 ×10⁻⁶ cm/s | 0.2 | Cc1cccc2c(-c3cccc4nn(C)cc34)nn(-c3ccc(N4CC5(CCN(C=O)C5)C4)nc3)c12 [compound 53, 2-(5-{2′,7-dimethyl-1H,2′H-[3,4′-biinda-zol]-1-yl}pyridin-2-yl)-2,6-dia-zaspiro[3.4]octane-6-carbaldehyde] | 20 K |
| 1000 nM | 700 nM | 200 nM | 700 nM | 200 nM | 26 ×10⁻⁶ cm/s | 0.5 | CC(=O)N1CCN(c2ccc(-n3nc(-c4cccc5nn(C)cc45)c4cccc(C)c43)cn2)CC1 [compound 15, 1-[4-(5-{2′,7-dimethyl-1H,2′H-[3,4′-biindazol]-1-yl}pyridin-2-yl)piperazin-1-yl]ethan-1-one] | 21 K |
